These results are taken from article PMC6271649, “Synthesis and Biological Evaluation of Substituted Desloratadines as Potent Arginine Vasopressin V2 Receptor Antagonists” (Molecules, 2014).

Where two headings read alike, the source gives them in different places.

By IC50 is commonly meant the concentration needed to halve the response being measured.

What all share (assay): radioligand binding assay
The target in assay [1] is T1, human recombinant vasopressin V2 receptor (Homo sapiens, UniProt P30518).
T1 construct: gene AVPR2; full-length recombinant receptor in 1321N1 host cells (PerkinElmer)
T1 sequence (P30518 whole entry): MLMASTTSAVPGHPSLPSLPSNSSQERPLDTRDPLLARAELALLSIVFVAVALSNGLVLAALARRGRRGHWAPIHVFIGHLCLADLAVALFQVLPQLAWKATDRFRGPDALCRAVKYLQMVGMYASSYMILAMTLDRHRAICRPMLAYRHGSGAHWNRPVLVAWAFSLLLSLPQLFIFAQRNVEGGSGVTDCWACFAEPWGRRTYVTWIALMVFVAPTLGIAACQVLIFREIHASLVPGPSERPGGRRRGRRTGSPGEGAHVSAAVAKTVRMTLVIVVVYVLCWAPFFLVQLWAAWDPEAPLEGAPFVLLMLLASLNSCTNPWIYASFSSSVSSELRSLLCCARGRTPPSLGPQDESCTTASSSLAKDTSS
The note with it: read-out: Bingding Assy (IC50; nmol/mL) / V2. The source says: (§1) radioligand binding assay on human recombinant vasopressin V2 receptor

The target of assay [2] is T2, human recombinant vasopressin V1a receptor (Homo sapiens, UniProt P37288).
T2 construct: gene AVPR1A; full-length recombinant receptor in 1321N1 host cells (PerkinElmer)
T2 sequence (P37288 whole entry): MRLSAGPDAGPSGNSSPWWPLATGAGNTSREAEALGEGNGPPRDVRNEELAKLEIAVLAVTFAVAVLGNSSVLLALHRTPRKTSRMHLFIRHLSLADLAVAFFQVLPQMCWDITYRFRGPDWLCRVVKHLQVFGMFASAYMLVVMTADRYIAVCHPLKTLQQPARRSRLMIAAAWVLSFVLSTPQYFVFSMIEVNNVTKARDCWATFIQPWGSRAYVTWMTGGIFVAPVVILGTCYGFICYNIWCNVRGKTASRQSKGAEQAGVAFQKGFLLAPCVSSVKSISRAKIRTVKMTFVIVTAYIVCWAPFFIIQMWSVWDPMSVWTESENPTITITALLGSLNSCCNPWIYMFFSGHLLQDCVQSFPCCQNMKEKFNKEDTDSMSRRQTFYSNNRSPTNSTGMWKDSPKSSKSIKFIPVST
Format: cell-based. The note with it: read-out: Bingding Assy (IC50; nmol/mL) / V1a. From the text: (§2) radioligand binding assay on human recombinant vasopressin V1a receptor

For assay [3], the target named is T2, human recombinant vasopressin V1a receptor. The conditions noted are these: read-out: Bingding Assy (IC50; nmol/mL) / V1a.
Source text: as §2

Assay [4] addresses T1, human recombinant vasopressin V2 receptor. Type of assay: cell-based. The note with it: read-out: Bingding Assy (IC50; nmol/mL) / V2.
Source text: as §1

`O=C(Nc1ccc(S(=O)(=O)N2CCC(=C3c4ccc(Cl)cc4CCc4cccnc43)CC2)cc1)c1cccc(Cl)c1` [1x, 3-Chloro-N-(4-((4-(8-chloro-5H-benzo[5,6]cyclohepta[1,2-b]pyridin-11(6H)-ylidene)piperidin-1-yl)-sulfonyl)phenyl)benzamide]: the IC50 in assay [1] was 310 nmol/mL; in assay [2], above 1000 nmol/mL.
`CCC(=O)Nc1ccc(C(=O)N2CCC(=C3c4ccc(Cl)cc4CCc4cccnc43)CC2)cc1` [1a]: the IC50 in assay [3] turned out to be 130 nmol/mL.
With `CCCC(=O)Nc1ccc(S(=O)(=O)N2CCC(=C3c4ccc(Cl)cc4CCc4cccnc43)CC2)cc1` [1f, N-(4-((4-(8-Chloro-5H-benzo[5,6]cyclohepta[1,2-b]pyridin-11(6H)-ylidene)piperidin-1-yl)sulfonyl)phenyl)butyramide], the IC50 in assay [3] was 480 nmol/mL; in assay [4], 40 nmol/mL.
For `Cc1ccc(S(=O)(=O)Nc2ccc(S(=O)(=O)N3CCC(=C4c5ccc(Cl)cc5CCc5cccnc54)CC3)cc2)cc1` [1y, N-(4-((4-(8-Chloro-5H-benzo[5,6]cyclohepta[1,2-b]pyridin-11(6H)-ylidene)piperidin-1-yl)sulfonyl)phenyl)-4-methylbenzenesulfonamide], the IC50 in assay [1] was 170 nmol/mL; in assay [2], 920 nmol/mL.
As for `CCCC(=O)Nc1ccc(C(=O)N2CCC(=C3c4ccc(Cl)cc4CCc4cccnc43)CC2)cc1` [1b], the IC50 in assay [3] was above 1000 nmol/mL; in assay [4], 47 nmol/mL.
`O=C(Nc1ccc(C(=O)N2CCC(=C3c4ccc(Cl)cc4CCc4cccnc43)CC2)cc1)c1cccc(Cl)c1` [1l, 3-Chloro-N-(4-(4-(8-chloro-5H-benzo[5,6]cyclohepta[1,2-b]pyridin-11(6H)-ylidene)piperidine-1-carbonyl)phenyl)benzamide]: the figures for the IC50 in assay [2] and in assay [4] were 560 nmol/mL and 16 nmol/mL, respectively.
With `O=C(Nc1ccc(C(=O)N2CCC(=C3c4ccc(Cl)cc4CCc4cccnc43)CC2)cc1)c1ccccc1Cl` [1k, 2-Chloro-N-(4-(4-(8-chloro-5H-benzo[5,6]cyclohepta[1,2-b]pyridin-11(6H)-ylidene)piperidine-1-carbonyl)phenyl)benzamide], the values for the IC50 in assay [2] and in assay [4] were 490 nmol/mL and 27 nmol/mL, respectively.
As to `O=C(Nc1cccc(S(=O)(=O)N2CCC(=C3c4ccc(Cl)cc4CCc4cccnc43)CC2)c1)c1cccc(Cl)c1` [1u, 3-Chloro-N-(3-((4-(8-chloro-5H-benzo[5,6]cyclohepta[1,2-b]pyridin-11(6H)-ylidene)piperidin-1-yl)-sulfonyl)phenyl)benzamide], the IC50 came out at 19 nmol/mL in assay [1] and 840 nmol/mL in assay [2].
For `O=C(CCCCl)Nc1ccc(C(=O)N2CCC(=C3c4ccc(Cl)cc4CCc4cccnc43)CC2)cc1` [1c, 4-Chloro-N-(4-(4-(8-chloro-5H-benzo[5,6]cyclohepta[1,2-b]pyridin-11(6H)-ylidene)piperidine-1-carbonyl)phenyl)butanamide], the IC50 in assay [3] was above 1000 nmol/mL; in assay [4], 25 nmol/mL.
For `O=C(c1ccc(NS(=O)(=O)c2cc(Cl)ccc2Cl)cc1)N1CCC(=C2c3ccc(Cl)cc3CCc3cccnc32)CC1` [1s, 2,5-Dichloro-N-(4-(4-(8-chloro-5H-benzo[5,6]cyclohepta[1,2-b]pyridin-11(6H)-ylidene)piperidine-1-carbonyl)phenyl)benzenesulfonamide], the IC50 in assay [2] came out at 320 nmol/mL.
The same measure, in the same setting: to `O=C(Nc1cccc(S(=O)(=O)N2CCC(=C3c4ccc(Cl)cc4CCc4cccnc43)CC2)c1)c1ccccc1` [1t, N-(3-((4-(8-Chloro-5H-benzo[5,6]cyclohepta[1,2-b]pyridin-11(6H)-ylidene)piperidin-1-yl)sulfonyl)phenyl)benzamide] belongs above 1000 nmol/mL.
`O=C(Nc1ccc(C(=O)N2CCC(=C3c4ccc(Cl)cc4CCc4cccnc43)CC2)cc1)c1ccccc1F` [1m, N-(4-(4-(8-Chloro-5H-benzo[5,6]cyclohepta[1,2-b]pyridin-11(6H)-ylidene)piperidine-1-carbonyl)phenyl)-2-fluorobenzamide]: the results for the IC50 in assay [2] and in assay [4] were 170 nmol/mL and 20 nmol/mL, respectively.
In the case of `O=C(Nc1ccc(C(=O)N2CCC(=C3c4ccc(Cl)cc4CCc4cccnc43)CC2)cc1)c1ccccc1` [1g, N-(4-(4-(8-Chloro-5H-benzo[5,6]cyclohepta[1,2-b]pyridin-11(6H)-ylidene)piperidine-1-carbonyl)phenyl)benzamide], the IC50 in assay [3] was 330 nmol/mL; in assay [4], 19 nmol/mL.
For `O=C(c1ccc(NS(=O)(=O)c2ccccc2Cl)cc1)N1CCC(=C2c3ccc(Cl)cc3CCc3cccnc32)CC1` [1r, 2-Chloro-N-(4-(4-(8-chloro-5H-benzo[5,6]cyclohepta[1,2-b]pyridin-11(6H)-ylidene)piperidine-1-carbonyl)phenyl)benzenesulfonamide], in assay [2], the IC50 was found to be 830 nmol/mL.
Regarding `CCCC(=O)Nc1cccc(S(=O)(=O)N2CCC(=C3c4ccc(Cl)cc4CCc4cccnc43)CC2)c1` [1e, N-(3-((4-(8-Chloro-5H-benzo[5,6]cyclohepta[1,2-b]pyridin-11(6H)-ylidene)piperidin-1-yl)sulfonyl)phenyl)butyramide], the IC50 in assay [3] turned out to be 176 nmol/mL; in assay [4] it was 26 nmol/mL.
As for `Cc1ccccc1C(=O)Nc1ccc(C(=O)N2CCC(=C3c4ccc(Cl)cc4CCc4cccnc43)CC2)cc1` [1h], the IC50 in assay [2] turned out to be 210 nmol/mL; in assay [4], 23 nmol/mL.
Turning to `O=C(Nc1ccc(C(=O)N2CCC(=C3c4ccc(Cl)cc4CCc4cccnc43)CC2)cc1)c1cccc([N+](=O)[O-])c1` [1o, N-(4-(4-(8-Chloro-5H-benzo[5,6]cyclohepta[1,2-b]pyridin-11(6H)-ylidene)piperidine-1-carbonyl)phenyl)-3-nitrobenzamide], the IC50 in assay [2] is 550 nmol/mL; in assay [4], 18 nmol/mL.
Regarding `Cc1ccc(S(=O)(=O)Nc2cccc(S(=O)(=O)N3CCC(=C4c5ccc(Cl)cc5CCc5cccnc54)CC3)c2)cc1` [1w, N-(3-((4-(8-Chloro-5H-benzo[5,6]cyclohepta[1,2-b]pyridin-11(6H)-ylidene)piperidin-1-yl)sulfonyl)phenyl)-4-methylbenzenesulfonamide], the IC50 was 30 nmol/mL in assay [1] and 860 nmol/mL in assay [2].
Regarding `O=C(Nc1ccc(C(=O)N2CCC(=C3c4ccc(Cl)cc4CCc4cccnc43)CC2)cc1)c1ccc([N+](=O)[O-])cc1` [1p, N-(4-(4-(8-Chloro-5H-benzo[5,6]cyclohepta[1,2-b]pyridin-11(6H)-ylidene)piperidine-1-carbonyl)phenyl)-4-nitrobenzamide], the IC50 in assay [2] is above 1000 nmol/mL; in assay [4] it was 52 nmol/mL.
Take `CCS(=O)(=O)Nc1ccc(C(=O)N2CCC(=C3c4ccc(Cl)cc4CCc4cccnc43)CC2)cc1` [1d, N-(4-(4-(8-Chloro-5H-benzo[5,6]cyclohepta[1,2-b]pyridin-11(6H)-ylidene)piperidine-1-carbonyl)phenyl)ethanesulfonamide]: in assay [3], the IC50 stood at 92 nmol/mL.
Regarding `COc1cccc(C(=O)Nc2ccc(C(=O)N3CCC(=C4c5ccc(Cl)cc5CCc5cccnc54)CC3)cc2)c1` [1n, N-(4-(4-(8-Chloro-5H-benzo[5,6]cyclohepta[1,2-b]pyridin-11(6H)-ylidene)piperidine-1-carbonyl)phenyl)-3-methoxybenzamide], the IC50 in assay [2] was 390 nmol/mL.
The same measure, in the same setting: to `Cc1cccc(C(=O)Nc2ccc(C(=O)N3CCC(=C4c5ccc(Cl)cc5CCc5cccnc54)CC3)cc2)c1` [1j, N-(4-(4-(8-Chloro-5H-benzo[5,6]cyclohepta[1,2-b]pyridin-11(6H)-ylidene)piperidine-1-carbonyl)phenyl)-3-methylbenzamide] belongs 370 nmol/mL.
Regarding `O=C(Nc1cccc(S(=O)(=O)N2CCC(=C3c4ccc(Cl)cc4CCc4cccnc43)CC2)c1)c1cccc([N+](=O)[O-])c1` [1v, N-(3-((4-(8-Chloro-5H-benzo[5,6]cyclohepta[1,2-b]pyridin-11(6H)-ylidene)piperidin-1-yl)sulfonyl)phenyl)-3-nitrobenzamide], in assay [2], the half-inhibitory concentration (IC50) stood at 630 nmol/mL.
For the compound `Cc1ccc(S(=O)(=O)Nc2ccc(C(=O)N3CCC(=C4c5ccc(Cl)cc5CCc5cccnc54)CC3)cc2)cc1` [1q, N-(4-(4-(8-Chloro-5H-benzo[5,6]cyclohepta[1,2-b]pyridin-11(6H)-ylidene)piperidine-1-carbonyl)phenyl)-4-methylbenzenesulfonamide], the IC50 turned out to be 720 nmol/mL in assay [2] and 24 nmol/mL in assay [4].
For `Cc1ccc(C(=O)Nc2ccc(C(=O)N3CCC(=C4c5ccc(Cl)cc5CCc5cccnc54)CC3)cc2)cc1` [1i], the values for the IC50 in assay [2] and in assay [4] were 220 nmol/mL and 18 nmol/mL, respectively.
